Data: ChEMBL document CHEMBL1154797, “Synthesis, anti-bacterial and anti-fungal activities of some novel Schiff bases containing 2,4-disubstituted thiazole ring” (2010)
In brackets after ≈: the same amount, converted by molar mass.

What follows are compounds tested on Candida tropicalis.
Assay type: functional
Description: Antifungal activity against Candida tropicalis at MIC after 72 hrs by disk diffusion assay
For `Brc1ccc(-c2csc(N/N=C/c3ccccc3)n2)cc1`, the “diameter of the inhibition zone (DIZ)” value was 14 mm.
`COc1ccc(-c2csc(N/N=C/c3ccccc3O)n2)cc1` was tested, and the “diameter of the inhibition zone (DIZ)” value was 13 mm.
With `Brc1ccc(-c2csc(NN=C3CCCCC3)n2)cc1` the “diameter of the inhibition zone (DIZ)” value was 14 mm.
With `OC(Cn1cncn1)(Cn1cncn1)c1ccc(F)cc1F` [FLUCONAZOLE] the “diameter of the inhibition zone (DIZ)” value was 20 mm.
For `OC(/C(=N/Nc1nc(-c2ccc(Br)cc2)cs1)c1ccccc1)c1ccccc1` (stereo not given), the “diameter of the inhibition zone (DIZ)” value was 16 mm.

These compounds were tested on Candida albicans (assay: Antifungal activity against Candida albicans).
Assay type: functional
`Brc1ccc(-c2csc(NN=C3CCCC3)n2)cc1` showed an MIC of 12.5 µg/mL (≈ 37.2 µM).
Compound `Brc1ccc(-c2csc(N/N=C/c3ccccc3)n2)cc1` has an MIC of 12.5 µg/mL (≈ 34.9 µM).
For `COc1ccc(-c2csc(N/N=C/c3ccccc3)n2)cc1`, the MIC was 12.5 µg/mL (≈ 40.4 µM).
`COc1ccc(-c2csc(NN=C3CCCC3)n2)cc1` was tested, and the MIC was 12.5 µg/mL (≈ 43.5 µM).
Work on `COc1ccc(-c2csc(N/N=C/c3ccccc3O)n2)cc1` yielded an MIC of 25 µg/mL (≈ 76.8 µM).
For `Brc1ccc(-c2csc(NN=C3CCCCC3)n2)cc1`, the MIC was 12.5 µg/mL (≈ 35.7 µM).
With `OC(Cn1cncn1)(Cn1cncn1)c1ccc(F)cc1F` [FLUCONAZOLE] the MIC was 6.25 µg/mL (≈ 20.4 µM).
`OC(/C(=N/Nc1nc(-c2ccc(Br)cc2)cs1)c1ccccc1)c1ccccc1` (stereo not given) was tested, and the MIC was 6.25 µg/mL (≈ 13.5 µM).

These compounds were tested on Candida tropicalis (assay: Antifungal activity against Candida tropicalis).
Assay type: functional
`Brc1ccc(-c2csc(N/N=C/c3ccccc3)n2)cc1` was tested, and the MIC was 25 µg/mL (≈ 69.8 µM).
`COc1ccc(-c2csc(N/N=C/c3ccccc3O)n2)cc1` showed an MIC of 25 µg/mL (≈ 76.8 µM).
Work on `Brc1ccc(-c2csc(NN=C3CCCCC3)n2)cc1` yielded an MIC of 12.5 µg/mL (≈ 35.7 µM).
Compound `OC(Cn1cncn1)(Cn1cncn1)c1ccc(F)cc1F` [FLUCONAZOLE] has an MIC of 6.25 µg/mL (≈ 20.4 µM).
In the case of `OC(/C(=N/Nc1nc(-c2ccc(Br)cc2)cs1)c1ccccc1)c1ccccc1` (stereo not given), the MIC is reported as 6.25 µg/mL (≈ 13.5 µM).

Each compound was assayed on Cryptococcus neoformans (assay: Antifungal activity against Cryptococcus neoformans).
Assay type: functional
`Brc1ccc(-c2csc(NN=C3CCCC3)n2)cc1` showed an MIC of 12.5 µg/mL (≈ 37.2 µM).
Compound `Brc1ccc(-c2csc(N/N=C/c3ccccc3)n2)cc1` has an MIC of 12.5 µg/mL (≈ 34.9 µM).
For `COc1ccc(-c2csc(N/N=C/c3ccccc3)n2)cc1`, the MIC was 12.5 µg/mL (≈ 40.4 µM).
`COc1ccc(-c2csc(NN=C3CCCC3)n2)cc1` showed an MIC of 12.5 µg/mL (≈ 43.5 µM).
Compound `COc1ccc(-c2csc(N/N=C/c3ccccc3O)n2)cc1` has an MIC of 25 µg/mL (≈ 76.8 µM).
`Brc1ccc(-c2csc(NN=C3CCCCC3)n2)cc1` showed an MIC of 12.5 µg/mL (≈ 35.7 µM).
With `OC(Cn1cncn1)(Cn1cncn1)c1ccc(F)cc1F` [FLUCONAZOLE] the MIC was 6.25 µg/mL (≈ 20.4 µM).
Compound `Brc1ccc(-c2csc(N/N=C/c3c[nH]c4ccccc34)n2)cc1` has an MIC of 25 µg/mL (≈ 62.9 µM).
Work on `OC(/C(=N/Nc1nc(-c2ccc(Br)cc2)cs1)c1ccccc1)c1ccccc1` (stereo not given) yielded an MIC of 6.25 µg/mL (≈ 13.5 µM).

These compounds were tested on Vibrio cholerae (assay: Antibacterial activity against Vibrio cholerae).
Assay type: functional
`Brc1ccc(-c2csc(NN=C3CCCC3)n2)cc1` was tested, and the MIC was 6.25 µg/mL (≈ 18.6 µM).
In the case of `COc1ccc(-c2csc(N/N=C(\c3ccccc3)C(O)c3ccccc3)n2)cc1` (stereo not given), the MIC is reported as 25 µg/mL (≈ 60.2 µM).
In the case of `OC(/C(=N/Nc1nc(-c2ccc(Br)cc2)cs1)c1ccccc1)c1ccccc1` (stereo not given), the MIC is reported as 12.5 µg/mL (≈ 26.9 µM).

The compounds below were run on Pseudomonas aeruginosa (assay: Antibacterial activity against Pseudomonas aeruginosa).
Assay type: functional
With `COc1ccc(-c2csc(N/N=C/c3ccc(O)cc3O)n2)cc1` the MIC was 50 µg/mL (≈ 146 µM).

The compounds below were run on Staphylococcus aureus (assay: Antibacterial activity against Staphylococcus aureus).
Assay type: functional
`COc1ccc(/C=N/Nc2nc(-c3ccc(OC)cc3)cs2)cc1` showed an MIC of 50 µg/mL (≈ 147 µM).
Work on `COc1ccc(-c2csc(N/N=C/c3ccc(OC)c(OC)c3)n2)cc1` yielded an MIC of 50 µg/mL (≈ 135 µM).
`COc1ccc(-c2csc(N/N=C/c3cc(OC)c(OC)c(OC)c3)n2)cc1` was tested, and the MIC was 50 µg/mL (≈ 125 µM).
`OC(/C(=N/Nc1nc(-c2ccc(Br)cc2)cs1)c1ccccc1)c1ccccc1` (stereo not given) gave an MIC of 12.5 µg/mL (≈ 26.9 µM).

What follows are compounds tested on Salmonella enterica (assay: Antibacterial activity against Salmonella typhi).
Assay type: functional, Salmonella enterica subsp. enterica serovar Typhi
Compound `O=C(O)c1cn(C2CC2)c2cc(N3CCNCC3)c(F)cc2c1=O` [CIPROFLOXACIN] has an MIC of 6.25 µg/mL (≈ 18.9 µM).

Each compound was assayed on Pseudomonas aeruginosa (assay: Antibacterial activity against Pseudomonas aeruginosa at MIC after 24 hrs by disk diffusion assay).
Assay type: functional
For `COc1ccc(-c2csc(N/N=C/c3ccc(O)cc3O)n2)cc1`, the “diameter of the inhibition zone (DIZ)” value was under 10 mm.

Each compound was assayed on Aspergillus flavus.
Assay type: functional
Description: Antifungal activity against Aspergillus flavus at MIC after 72 hrs by disk diffusion assay
For `Brc1ccc(-c2csc(NN=C3CCCC3)n2)cc1`, the “diameter of the inhibition zone (DIZ)” value was 15 mm.
In the case of `Brc1ccc(-c2csc(N/N=C/c3ccccc3)n2)cc1`, the “diameter of the inhibition zone (DIZ)” value is reported as 16 mm.
In the case of `COc1ccc(-c2csc(N/N=C(\c3ccccc3)C(O)c3ccccc3)n2)cc1` (stereo not given), the “diameter of the inhibition zone (DIZ)” value is reported as 13 mm.
`COc1ccc(-c2csc(N/N=C/c3ccccc3)n2)cc1` was tested, and the “diameter of the inhibition zone (DIZ)” value was 13 mm.
In the case of `COc1ccc(-c2csc(NN=C3CCCC3)n2)cc1`, the “diameter of the inhibition zone (DIZ)” value is reported as 18 mm.
For `Brc1ccc(-c2csc(NN=C3CCCCC3)n2)cc1`, the “diameter of the inhibition zone (DIZ)” value was 16 mm.
With `OC(Cn1cncn1)(Cn1cncn1)c1ccc(F)cc1F` [FLUCONAZOLE] the “diameter of the inhibition zone (DIZ)” value was 19 mm.
For `OC(/C(=N/Nc1nc(-c2ccc(Br)cc2)cs1)c1ccccc1)c1ccccc1` (stereo not given), the “diameter of the inhibition zone (DIZ)” value was 17 mm.

These compounds were tested on Aspergillus flavus (assay: Antifungal activity against Aspergillus flavus).
Assay type: functional
`Brc1ccc(-c2csc(NN=C3CCCC3)n2)cc1` gave an MIC of 12.5 µg/mL (≈ 37.2 µM).
`Brc1ccc(-c2csc(N/N=C/c3ccccc3)n2)cc1` showed an MIC of 12.5 µg/mL (≈ 34.9 µM).
With `COc1ccc(-c2csc(N/N=C(\c3ccccc3)C(O)c3ccccc3)n2)cc1` (stereo not given) the MIC was 25 µg/mL (≈ 60.2 µM).
With `COc1ccc(-c2csc(N/N=C/c3ccccc3)n2)cc1` the MIC was 12.5 µg/mL (≈ 40.4 µM).
Compound `COc1ccc(-c2csc(NN=C3CCCC3)n2)cc1` has an MIC of 12.5 µg/mL (≈ 43.5 µM).
In the case of `Brc1ccc(-c2csc(NN=C3CCCCC3)n2)cc1`, the MIC is reported as 12.5 µg/mL (≈ 35.7 µM).
Compound `OC(Cn1cncn1)(Cn1cncn1)c1ccc(F)cc1F` [FLUCONAZOLE] has an MIC of 6.25 µg/mL (≈ 20.4 µM).
`OC(/C(=N/Nc1nc(-c2ccc(Br)cc2)cs1)c1ccccc1)c1ccccc1` (stereo not given) showed an MIC of 6.25 µg/mL (≈ 13.5 µM).

Each compound was assayed on Klebsiella pneumoniae (assay: Antibacterial activity against Klebsiella pneumoniae).
Assay type: functional
`O=C(O)c1cn(C2CC2)c2cc(N3CCNCC3)c(F)cc2c1=O` [CIPROFLOXACIN] showed an MIC of 6.25 µg/mL (≈ 18.9 µM).
For `Oc1ccccc1/C=N/Nc1nc(-c2ccc(Br)cc2)cs1`, the MIC was 50 µg/mL (≈ 134 µM).
With `Fc1ccccc1/C=N/Nc1nc(-c2ccc(Br)cc2)cs1` the MIC was 50 µg/mL (≈ 133 µM).

Each compound was assayed on Klebsiella pneumoniae (assay: Antibacterial activity against Klebsiella pneumoniae at MIC after 24 hrs by disk diffusion assay).
Assay type: functional
With `O=C(O)c1cn(C2CC2)c2cc(N3CCNCC3)c(F)cc2c1=O` [CIPROFLOXACIN] the “diameter of the inhibition zone (DIZ)” value was 23 mm.
In the case of `Oc1ccccc1/C=N/Nc1nc(-c2ccc(Br)cc2)cs1`, the “diameter of the inhibition zone (DIZ)” value is reported as under 10 mm.
`Fc1ccccc1/C=N/Nc1nc(-c2ccc(Br)cc2)cs1` was tested, and the “diameter of the inhibition zone (DIZ)” value was under 10 mm.

Each compound was assayed on Staphylococcus aureus (assay: Antibacterial activity against Staphylococcus aureus at MIC after 24 hrs by disk diffusion assay).
Assay type: functional
For `COc1ccc(/C=N/Nc2nc(-c3ccc(OC)cc3)cs2)cc1`, the “diameter of the inhibition zone (DIZ)” value was under 10 mm.
With `O=C(O)c1cn(C2CC2)c2cc(N3CCNCC3)c(F)cc2c1=O` [CIPROFLOXACIN] the “diameter of the inhibition zone (DIZ)” value was 25 mm.
For `COc1ccc(-c2csc(N/N=C/c3ccc(OC)c(OC)c3)n2)cc1`, the “diameter of the inhibition zone (DIZ)” value was under 10 mm.
In the case of `COc1ccc(-c2csc(N/N=C/c3cc(OC)c(OC)c(OC)c3)n2)cc1`, the “diameter of the inhibition zone (DIZ)” value is reported as under 10 mm.
With `OC(/C(=N/Nc1nc(-c2ccc(Br)cc2)cs1)c1ccccc1)c1ccccc1` (stereo not given) the “diameter of the inhibition zone (DIZ)” value was 17 mm.

Each compound was assayed on Candida albicans.
Assay type: functional
Description: Antifungal activity against Candida albicans at MIC after 72 hrs by disk diffusion assay
For `Brc1ccc(-c2csc(NN=C3CCCC3)n2)cc1`, the “diameter of the inhibition zone (DIZ)” value was 16 mm.
In the case of `Brc1ccc(-c2csc(N/N=C/c3ccccc3)n2)cc1`, the “diameter of the inhibition zone (DIZ)” value is reported as 15 mm.
`COc1ccc(-c2csc(N/N=C/c3ccccc3)n2)cc1` was tested, and the “diameter of the inhibition zone (DIZ)” value was 13 mm.
For `COc1ccc(-c2csc(NN=C3CCCC3)n2)cc1`, the “diameter of the inhibition zone (DIZ)” value was 17 mm.
`COc1ccc(-c2csc(N/N=C/c3ccccc3O)n2)cc1` was tested, and the “diameter of the inhibition zone (DIZ)” value was 11 mm.
`Brc1ccc(-c2csc(NN=C3CCCCC3)n2)cc1` was tested, and the “diameter of the inhibition zone (DIZ)” value was 17 mm.
For `OC(Cn1cncn1)(Cn1cncn1)c1ccc(F)cc1F` [FLUCONAZOLE], the “diameter of the inhibition zone (DIZ)” value was 22 mm.
For `OC(/C(=N/Nc1nc(-c2ccc(Br)cc2)cs1)c1ccccc1)c1ccccc1` (stereo not given), the “diameter of the inhibition zone (DIZ)” value was 19 mm.

The compounds below were run on Cryptococcus neoformans.
Assay type: functional
Description: Antifungal activity against Cryptococcus neoformans at MIC after 72 hrs by disk diffusion assay
With `Brc1ccc(-c2csc(NN=C3CCCC3)n2)cc1` the “diameter of the inhibition zone (DIZ)” value was 14 mm.
`Brc1ccc(-c2csc(N/N=C/c3ccccc3)n2)cc1` was tested, and the “diameter of the inhibition zone (DIZ)” value was 15 mm.
`COc1ccc(-c2csc(N/N=C/c3ccccc3)n2)cc1` was tested, and the “diameter of the inhibition zone (DIZ)” value was 14 mm.
For `COc1ccc(-c2csc(NN=C3CCCC3)n2)cc1`, the “diameter of the inhibition zone (DIZ)” value was 18 mm.
For `COc1ccc(-c2csc(N/N=C/c3ccccc3O)n2)cc1`, the “diameter of the inhibition zone (DIZ)” value was 12 mm.
`Brc1ccc(-c2csc(NN=C3CCCCC3)n2)cc1` was tested, and the “diameter of the inhibition zone (DIZ)” value was 16 mm.
`OC(Cn1cncn1)(Cn1cncn1)c1ccc(F)cc1F` [FLUCONAZOLE] was tested, and the “diameter of the inhibition zone (DIZ)” value was 22 mm.
In the case of `Brc1ccc(-c2csc(N/N=C/c3c[nH]c4ccccc34)n2)cc1`, the “diameter of the inhibition zone (DIZ)” value is reported as 13 mm.
With `OC(/C(=N/Nc1nc(-c2ccc(Br)cc2)cs1)c1ccccc1)c1ccccc1` (stereo not given) the “diameter of the inhibition zone (DIZ)” value was 21 mm.

These compounds were tested on Vibrio cholerae (assay: Antibacterial activity against Vibrio cholerae at MIC after 24 hrs by disk diffusion assay).
Assay type: functional
With `Brc1ccc(-c2csc(NN=C3CCCC3)n2)cc1` the “diameter of the inhibition zone (DIZ)” value was 19 mm.
In the case of `COc1ccc(-c2csc(N/N=C(\c3ccccc3)C(O)c3ccccc3)n2)cc1` (stereo not given), the “diameter of the inhibition zone (DIZ)” value is reported as 16 mm.
In the case of `OC(/C(=N/Nc1nc(-c2ccc(Br)cc2)cs1)c1ccccc1)c1ccccc1` (stereo not given), the “diameter of the inhibition zone (DIZ)” value is reported as 17 mm.

These compounds were tested on Salmonella enterica (assay: Antibacterial activity against Salmonella typhi at MIC after 24 hrs by disk diffusion assay).
Assay type: functional, Salmonella enterica subsp. enterica serovar Typhi
`O=C(O)c1cn(C2CC2)c2cc(N3CCNCC3)c(F)cc2c1=O` [CIPROFLOXACIN] was tested, and the “diameter of the inhibition zone (DIZ)” value was 18 mm.
